According to patent US7910135B2, “Hydrogel wound dressing and biomaterials formed in situ and their uses” (ULURU Inc., priority 2006, dated 2011):

Columns and labels:
metalloproteases = conditions: cited from earlier work
[1] = Release of lidocaine or erythromycin from nanoparticle aggregates in PBS; format: physicochemical; conditions: dry blended with pHEMA or HEMA/GMA copolymer powder, aggregate formed in PBS
Excerpt: Poly-HEMA nanoparticle powder and HEMA/GMA copolymer nanoparticle powders were dry blended with lidocaine or erythromycin powder and upon exposure to PBS, aggregates formed trapping the active between the particles comprising the aggregate.

Structure (SMILES) | Effective concentration (metalloproteases) [mmol/L] | Change of release rate as the glycerol methacrylate comonomer is increased [1]
c1cnc2c(c1)ccc1cccnc12 [1,10 phenanthroline] | 0.1 | –
CC[C@H]1OC(=O)[C@H](C)[C@@H](O[C@H]2C[C@@](C)(OC)[C@@H](O)[C@H](C)O2)[C@H](C)[C@@H](O[C@@H]2O[C@H](C)C[C@H](N(C)C)[C@H]2O)[C@](C)(O)C[C@@H](C)C(=O)[C@H](C)[C@@H](O)[C@]1(C)O [erythromycin] | – | increases
CCN(CC)CC(=O)Nc1c(C)cccc1C [lidocaine] | – | released at a slower rate
